Laboratory results as given in paper PMC8406319, “The dCache Chemoreceptor TlpA of Helicobacter pylori Binds Multiple Attractant and Antagonistic Ligands via Distinct Sites” (mBio, 2021).
Structures can show the parent of a compound that is named as a salt.

What was measured:
TlpALBD = assay: Small-molecule ligand binding array; set-up: species or system Helicobacter pylori SS1; conditions: ligand binding array screen; n = 3; further: key: + for positive binding; +/− for intermediate binding; − for no binding
Method: Small-molecule arrays were prepared and performed as previously described ([57]). Briefly, 1 μg of purified TlpALBD in phosphate-buffered saline (PBS) (pH 7.2) was incubated with a molar concentration ratio (4:2:1) of anti-His antibody (Cell Signaling), followed by incubation with a secondary antibody (Thermo Scientific) for signal amplification. The protein-antibody mix was added to an Arrayit Superepoxy III glass substrate array blocked with PBS (pH 7.2) with 1% bovine serum albumin. […] Unbound protein was washed away with PBS with 0.05% Tween. […] Three biological replicates were performed, with a total of 12 data points for each glycan tested. Binding was classified as positive for a ligand if the relative fluorescence unit value was >1-fold above the mean background (defined as the average background of negative-control spots plus 3 standard deviations [SD]) and was statistically significant (P < 0.005 by Student’s t test). Small-molecule array slide preparation and analysis were done according to MIRAGE guidelines ([58]) (outlined in Table S5).
Classification Guidelines
1. Sample: Glycan Binding Sample
Origin: Helico bact er pyl ori SS1; produce d as a reco mbinant His -tagged protein in E.
The preparation of TlpA is exp lained in the Materials and Methods se ct ion: TlpA co nst ruct desi gn and protein purifica tion.
Sample Sample is a His Tagged protein co ntaining only the periplasm ic rece ptor domain, amino […]
Please see Materials and Methods: Li ga nd bi ndi ng arra y.
Proteins were co mplexe d with mouse anti-his antibody, with se co ndary and tertiary Alexa Fluor555 antibodies (rabbit anti-mouse , goat anti-rabbit) at a molar ratio of 4:2:1.
The protein/antibody co mplex was incu bated on ice for 10 mins prior to placi ng on the Assa y array. Arrays were performed with 1 µg of co mplexe d protein incu bated on the array for protoco l 20 min. Arrays were then wash ed 3 times in Array PBS (PBS + 2 mM MgCl2 + 2 mM CaCl2) then dried by ce ntrifugation for 3 min at 300 x g. Sca nning was performed usi ng an Innopsys InnoSca n 1100AL and analyze d usi ng Mapix (Innopsy s). Yes/ no binding was determined by si x posi tive replica te sp ots in three replica te exp eriments. […]
2.2 Small molecule Library […]
descr iption for Compounds printed in the amino aci d/small molecu le array for this st udy are list ed in […]
5.2 Small molecule array with “Map”
The array co nsi sts of triplica te su b-arrays of amino aci ds and sm all moleucl es (24 rows x 10 co lumns) with 400μm sp ot sp aci ng (ce ntre to ce ntre) with a minimum sp ot si ze of 100μm . Each sa mple is printed si x times, with each of the 3 su b-arrays incl uding at least Array layo ut si x negative co ntrol sa mples (print so lution only) and a posi tive co ntrol sa mples […]
Posi tive co ntrols provi de proof of su cce ssf ul immobiliza tion of the amine reagents and provi des for orientation for analysi s.
Sample Arrays are quality co ntrolled by a range of measu res. 1. Each printed array is post print identifica tion sca nned to co nfirm deposi tion of the sa mples on the array su rface prior to neutraliza tion and quality of the remaining sl ide su rface . 2. Post neutralize d sl ides are sca nned again to monitor co ntrol for remaining autofluoresce nce .
1. 6. Detector and Data Processing
Sca nning reso lution: […]
Sca n powers: Low lase r power. […]
analysi s Innopsys MAPIX.

WT TlpALBD = assay: SPR competition (A-B-A) binding assay; set-up: species or system Helicobacter pylori SS1; conditions: compounds at 10-fold their Kd
Method: The two ligands’ binding status can be classified as either independent, shared, or preferential shared sites. For independent sites, ligand A saturates all its binding sites, and ligand B then binds to its independent site; this mode produces additive effects on the SPR signal. […] Finally, it is also possible to have preferential shared sites where ligands share the same binding site, but the protein binds to one ligand preferentially when in equilibrium.
SPR competition assays were performed by using a Biacore S200 instrument and the A-B-A inject function ([56]). Competition A-B-A analyses were used to interrogate the specificity of the potential ligand binding site preferences of TlpALBD and to unravel the nature of the ligand-sensor interactions. This assay was designed to show if a cumulative response is observed when a second analyte (B) is flown across the bound protein saturated with the first analyte (A) (Fig. 4). […] The wild-type TlpALBD protein was immobilized as described above. […] All response data were normalized to a molecular weight of 100 Da for each analyte, allowing direct comparison of responses. Independent-site theoretical values are calculated by taking the sum of individual responses. Shared-site theoretical values are calculated by taking the sum of individual responses divided by the number of individual responses.

Compound | Array result (TlpALBD) | SPR response following saturation with arginine or fumarate (WT TlpALBD) | SPR response following initial saturation with glucosamine (WT TlpALBD) | SPR response after saturation of TlpALBD with arginine (WT TlpALBD; compared to theoretical value) | SPR response after saturation of TlpALBD with fumarate (WT TlpALBD; compared to theoretical value)
N[C@H]1C(O)O[C@H](CO)[C@@H](O)[C@@H]1O (stereo partly drawn) [Glucosamine, D(+)-glucosamine hydrochloride] | + | the response was not additive | – | – | –
Cc1ncc(C[n+]2csc(CCO)c2C)c(N)n1 [Thiamine, thiamine hydrochloride] | +/− | – | – | – | –
N[C@@H](CS)C(=O)O [Cysteine, L-cysteine hydrochloride monohydrate] | +/− | – | – | – | –
O=C(O)C[C@H](O)C(=O)O [Malic acid, L-malic acid] | +/− | – | – | – | –
O=C(O)/C=C/C(=O)O [Fumarate, sodium fumarate] | + | – | no additive response was observed | increased response (additive effect) | –
N=C(N)NCCC[C@H](N)C(=O)O [Arginine, L-arginine monohydrochloride] | + | – | no additive response was observed | – | did not produce an additional response
